Results taken from US10632147B2, “Methods and compositions for treating inflammatory disorders” (priority 2007, dated 2020).

What was measured:
[1] = tested on: Candida albicans ATCC #10231; experiment: Microbial Time Kill Assay; assay type: cell-based; settings: 150 ppm AFC, 15 second contact time
Procedure: Fungicidal activity tests were performed using hypochlorous acid (140-150 ppm) against Candida albicans ATCC 10231 and Aspergillus niger ATCC 16404. Stock culture of Candida albicans ATCC 10231 and Aspergillus niger ATCC 16404 were grown and maintained on Malt Extract Agar at 30° C. […] All samples were serially diluted, plated out on Tryptic Soy Agar, incubated at 37° C. for 3 days and colonies forming units counted.

[2] = tested on: Pseudomonas aeruginosa ATCC 15442; experiment: Bactericidal suspension test; assay type: cell-based
[3] = tested on: Enterococcus faecium ATCC 10541; experiment: Bactericidal suspension test; assay type: cell-based
[4] = tested on: Pseudomonas aeruginosa ATCC #9027; experiment: Microbial Time Kill Assay; assay type: cell-based; settings: 150 ppm AFC, 15 second contact time
[5] = tested on: Enterococcus faecium (VRE) ATCC #51559; experiment: Microbial Time Kill Assay; assay type: cell-based; settings: 150 ppm AFC, 15 second contact time
MS2 = MS2 coliphage virus carrier test; settings: ceramic tiles and stainless steels, 1 min contact time, 20-200 ppm, infectivity
Adenovirus, type V = experiment: Virucidal suspension test; assay type: cell-based
[6] = tested on: Salmonella typhimuium (strains TA1535, TA1537, TA98 and TA100); experiment: Bacterial mutagenicity; settings: 241-252 ppm AFC, absence and presence of liver S9 fraction
[7] = tested on: Staphylococcus haemolyticus ATCC #29968; experiment: Microbial Time Kill Assay; assay type: cell-based; settings: 150 ppm AFC, 15 second contact time
[8] = tested on: Bacillus subtilis var. niger CIP 7 718; experiment: Sporicidal suspension test; assay type: cell-based
Procedure: (§1) Sporicidal activity tests were performed using hypochlorous acid solution against Bacillus cereus CIP 7803, Bacillus subtilis CIP 7718, Clostridium sporogenes CIP 7939. Stock spore suspensions of Bacillus cereus CIP 7803, Bacillus subtilis CIP 7718, Clostridium sporogenes CIP 7939 were obtained from the Pasteur Institute's National Collection for the Culture of micro-organisms. Spore suspensions (1 ml) were added to 4 ml of sterile distilled water and 5 ml of hypochlorous acid solution at a range of concentrations at 20° C. After an exposure time of 60 minutes, 1 ml samples were neutralized using standard quench solution. All samples were serially diluted, plated out on selective agar, incubated aerobically or anaerobically at either 30° C. or 37° C. for 72 hours and colonies forming units counted.

[9] = tested on: Clostridium sporogenes CIP 7 939; experiment: Sporicidal suspension test; assay type: cell-based
Procedure: as §1

[10] = tested on: Serratia marcescens ATCC #14756; experiment: Microbial Time Kill Assay; assay type: cell-based; settings: 150 ppm AFC, 15 second contact time
[11] = tested on: Enterobacter aerogenes ATCC #51342; experiment: Microbial Time Kill Assay; assay type: cell-based; settings: 150 ppm AFC, 15 second contact time
Poliovirus Enterovirus 1 = assay type: cell-based
[12] = tested on: Staphylococcus hominis ATCC #25615; experiment: Microbial Time Kill Assay; assay type: cell-based; settings: 150 ppm AFC, 15 second contact time
[13] = tested on: Staphylococcus saprophyticus ATCC #15305; experiment: Microbial Time Kill Assay; assay type: cell-based; settings: 150 ppm AFC, 15 second contact time
[14] = tested on: Micrococcus luteus ATCC #10240; experiment: Microbial Time Kill Assay; assay type: cell-based; settings: 150 ppm AFC, 15 second contact time
[15] = tested on: Enterococcus faecium ATCC #35667; experiment: Microbial Time Kill Assay; assay type: cell-based; settings: 150 ppm AFC, 15 second contact time
[16] = tested on: wound pathogens including S. aureus, P. aeruginosa, E. coli, Enterococcus spp., and Candida spp.; experiment: In vitro antimicrobial studies against wound pathogens; assay type: cell-based; settings: within a 15 seconds contact time, even at ≤150 ppm
human norovirus = experiment: Norovirus carrier test; settings: ceramic tiles and stainless steels, 1 min contact time, 20-200 ppm, RNA testing
[17] = tested on: Orthopoxvirus from vaccine; assay type: cell-based
[18] = tested on: Staphylococcus aureus ATCC 6538; experiment: Bactericidal suspension test; assay type: cell-based
[19] = tested on: Escherichia coli (strain CM891); experiment: Bacterial mutagenicity; settings: 241-252 ppm AFC, absence and presence of liver S9 fraction
[20] = tested on: Mycobacterium avium ATCC 15769; experiment: Mycobactericidal suspension test; assay type: cell-based
Procedure: (§2) Broth cultures of either M. terrae (ATCC 15755) and M. avium (ATCC 15769) were grown for up to 35 days at 35° C. […] The plates were incubated for 4-5 weeks at 35° C. and colonies counted.

[21] = tested on: Mycobacterium terrae ATCC 15755; experiment: Mycobactericidal suspension test; assay type: cell-based
Procedure: as §2

[22] = Pilot study HOCl versus Sulfamylon as irrigant over excised and grafted burn
[23] = hypochlorous acid 40-180 ppm, suspension test

## OCl [hypochlorous acid]
[1]
  % Reduction (% Kill): >99.999%
  HOCl Solution Log10: ≤1
  HOCl Solution Survivors: <10
  Log Reduction: ≥5.63
[2]; [23]
  contact time after which pass was achieved: 15 s
[2]; in 5 min., 20° C. ± 1° C.
  Test Result (Log reduction): >10^5 in 5 min.
[3]; [23]
  contact time after which pass was achieved: 15 s
[3]; in 5 min., 20° C. ± 1° C.
  Test Result (Log reduction): >10^5 in 5 min.
[4]
  % Reduction (% Kill): >99.999%
  HOCl Solution Log10: ≤1
  HOCl Solution Survivors: <10
  Log Reduction: ≥5.11
[5]
  % Reduction (% Kill): >99.999%
  HOCl Solution Log10: ≤1
  HOCl Solution Survivors: <10
  Log Reduction: ≥5.20
MS2
  inactivation of MS2: > 3 log10
Adenovirus, type V
  Test Result (Log reduction): >10^4 in 15 min.
  contact time after which pass was achieved: 15 min
[6]
  mutagenic activity: No evidence of mutagenic activity
[7]
  % Reduction (% Kill): >99.999%
  HOCl Solution Log10: ≤1
  HOCl Solution Survivors: <10
  Log Reduction: ≥5.57
[8]; [23]
  contact time after which pass was achieved: 60 min
[8]; in 60 min., 20° C. ± 1° C.
  Test Result (Log reduction): >10^6 in 60 min.
[9]; [23]
  contact time after which pass was achieved: 60 min
[9]; in 60 min., 20° C. ± 1° C.
  Test Result (Log reduction): >10^6 in 60 min.
[10]
  % Reduction (% Kill): >99.999%
  HOCl Solution Log10: ≤1
  HOCl Solution Survivors: <10
  Log Reduction: ≥5.08
[11]
  % Reduction (% Kill): >99.999%
  HOCl Solution Log10: ≤1
  HOCl Solution Survivors: <10
  Log Reduction: ≥5.43
Poliovirus Enterovirus 1; [23]
  contact time after which pass was achieved: 15 min
Poliovirus Enterovirus 1; in 15 min., 20° C. ± 1° C.
  Test Result (Log reduction): >10^4 in 15 min.
[12]
  % Reduction (% Kill): >99.999%
  HOCl Solution Log10: ≤1
  HOCl Solution Survivors: <10
  Log Reduction: ≥5.68
[13]
  % Reduction (% Kill): >99.999%
  HOCl Solution Log10: ≤1
  HOCl Solution Survivors: <10
  Log Reduction: ≥5.68
[14]
  % Reduction (% Kill): >99.999%
  HOCl Solution Log10: ≤1
  HOCl Solution Survivors: <10
  Log Reduction: ≥5.04
[15]
  % Reduction (% Kill): >99.999%
  HOCl Solution Log10: ≤1
  HOCl Solution Survivors: <10
  Log Reduction: ≥5.08
[16]
  kill: > 5 log
Human norovirus
  inactivation of human norovirus: > 3 log10
[17]; [23]
  contact time after which pass was achieved: 15 min
[17]; in 15 min., 20° C. ± 1° C.
  Test Result (Log reduction): >10^4 in 15 min.
[18]; [23]
  contact time after which pass was achieved: 15 s
[18]; in 5 min., 20° C. ± 1° C.
  Test Result (Log reduction): >10^5 in 5 min.
[19]
  mutagenic activity: No evidence of mutagenic activity
[20]; [23]
  contact time after which pass was achieved: 15 s
[20]; in 5 min., 20° C. ± 1° C.
  Test Result (Log reduction): >10^5 in 5 min.
[21]; [23]
  contact time after which pass was achieved: 15 s
[21]; in 5 min., 20° C. ± 1° C.
  Test Result (Log reduction): >10^5 in 5 min.
[22]
  safety profile (adverse effects): absence of adverse effects
[22]; 150-180 ppm AFC
  graft take and infection prevention compared with Sulfamylon: equivalency
  pain reduction (visual analogue scale) compared with Sulfamylon group: better
